# Results reported in patent US20200046835A1, “Systems, Methods, and Compositions For Cross-Linking Treatments of an Eye” (Avedro, Inc., priority 2014, published 2020).
# Tests used:
# [1] = tested on: corneal collagen; assay: Papain digest fluorescence of pig corneal flaps (collagen cross-linking); settings: for fluorescence of the corneal samples after digestion with papain (excitation 360 nm), compared to controls not exposed to UV: phosphate buffer, UV 365 nm, 30 mW/cm^2, pulsed 1 s on:1 s off, 8 min, oxygen; for fluorescence (relative to untreated controls) recorded at 450 nm: FeSO4 0.5 mM added to 0.1% riboflavin
# Procedure: Corneal flaps were soaked in either distilled water or diluted H2O2 (1%) for 20 minutes. Flaps soaked in H2O2 were either rinsed twice with distilled water or removed from H2O2 and placed in 0.1% FeSO4 solution in distilled water for an additional 20 minute soak followed by a 2× rinse with distilled water. Flaps were dried in a vacuum until the weight change became less than 10% (Rotary vane vacuum pump RV3 A652-01-903, BOC Edwards, West Sussex, UK). Each flap was digested for 2.5 hours at 65° C. with 2.5 units/ml of papain (from Papaya latex, Sigma) in 1 ml of papain buffer [EBBS (pH 7.0-7.2), 2 mM L-cysteine and 2 mM EDTA]. Papain digests were centrifuged for 5 seconds at 2200×G (Mini centrifuge 05-090-100, Fisher Scientific), diluted 0.5 times with BBBS and fluorescence of the solutions was measured with excitation of λex=360 nm in a QM-40 Spectrofluorometer (Photon Technology Int., London, Ontario, Canada). The fluorescence of the papain buffer was taken into account by measuring fluorescence in the absence of tissue and subtracting this value from the fluorescence of the samples. […]
# (§1) Pig eyes were shipped overnight on ice from an abattoir (SiouxPreme, Sioux City, Iowa), rinsed in saline. Eyes were cleaned and epithelium was removed. […] If specified, eyes were placed in a beaker with a light oxygen stream for 2 minutes in the incubation chamber prior to irradiation. Corneas were pan-corneally irradiated with a top hat beam (3% root mean square) for the chosen time (4 or 8 minutes) with 365-nm light source (UV LED NCSU033B[T]; Nichia Co., Tokushima, Japan) at the chosen irradiance (30 mW/cm^2, pulsed or non-pulsed) which was measured with a power sensor (model PD-300-UV; Ophir, Inc., Jerusalem, Israel) at the corneal surface. Corneal flaps (approximately 200 μm thick) were excised from the eyes with aid of Intralase femtosecond laser (Abbot Medical Optics, Santa Ana, Calif.). The average thickness of the corneal flaps was calculated as a difference between the measurements before and after the excision from the eyes with an ultrasonic Pachymeter (DGH Technology, Exton, Pa.). The flaps were placed into a biaxial extensometer (CellScale Biotester 5000, Waterloo, ON), using biorake attachments with 5 tines spanning a width of 3 mm. Each sample was stretched at a constant rate of 4 μm/s in saline at 37° C. until sample failure. The flaps were washed with distilled water 2 times, dried with filter paper, washed with dH2O two times, and then dried in a vacuum until the weight change became less than 10% (Rotary vane vacuum pump RV3 A652-01-903, BOC Edwards, West Sussex, UK). Each flap was digested for 2.5 hours at 65° C. with 2.5 units/ml of papain (from Papaya latex, Sigma) in 1 ml of papain buffer [BBBS (pH 7.0-7.2), 2 mM L-cysteine and 2 mM EDTA]. Papain digests were centrifuged for 5 seconds at 2200×G (Mini centrifuge 05-090-100, Fisher Scientific), diluted 0.5 times with 1× BBBS and fluorescence of the solutions was measured with excitation of λex=360 nm in a QM-40 Spectrofluorometer (Photon Technology Int., London, Ontario, Canada). The fluorescence of the papain buffer was taken into account by measuring fluorescence in the absence of tissue and subtracting this value from the fluorescence of the samples.
# (§2) Oxygen was supplied continuously to the beaker during the time of exposure.
# as §2
# [2] = tested on: corneal collagen; assay: Biaxial extensometry (tensiometry) of pig corneal flaps; settings: for stiffening of corneal sample (displacement vs. force curves), compared to the unexposed controls: phosphate buffer, UV 365 nm, 30 mW/cm^2, pulsed 1 s on:1 s off, 8 min, oxygen; for corneal stiffness (displacement-force diagrams): 1% solution in dH2O
# Procedure: as §1, §2
# Oxygen was supplied continuously to the beaker during the time of exposure. Corneal flaps were cut at approximately 200 μm.
# Pig eyes were shipped overnight on ice from an abattoir (SiouxPreme, Sioux City, Iowa), rinsed in saline. Eyes were cleaned and epithelium was removed. […] Corneas were pan-corneally irradiated with a top hat beam (3% root mean square) for 4 minutes with 365-nm light source (UV LED NCSU033B[T]; Nichia Co., Tokushima, Japan) at irradiance 30 mW/cm^2, which was measured with a power sensor (model PD-300-UV; Ophir, Inc., Jerusalem, Israel) at the corneal surface. Corneal flaps (approximately 200 μm thick) were excised from the eyes with aid of Intralase femtosecond laser (Abbott Medical Optics, Santa Ana, Calif.). The average thickness of the corneal flaps was calculated as a difference between the measurements before and after the excision from the eyes with an ultrasonic Pachymeter (DGH Technology, Exton, Pa.). The flaps were then placed into a biaxial extensometer (CellScale Biotester 5000, Waterloo, ON), using biorake attachments with 5 tines spanning a width of 3 mm. Each sample was stretched at a constant rate of 4 μm/s in saline at 37° C. until sample failure. The flaps were washed with distilled water, dried in a vacuum until the weight change became less than 10% (Rotary vane vacuum pump RV3 A652-01-903, BOC Edwards, West Sussex, UK). Each flap was digested for 2.5 h at 65° C. with 2.5 units/ml of papain (from Papaya latex, Sigma) in 1 ml of papain buffer [EBBS (pH 7.0-7.2), 2 mM L-cysteine and 2 mM EDTA].
# [3] = target: human serum albumin (Homo sapiens, UniProt P02768); settings: irradiated in the presence of human serum albumin; cited from earlier work
# [4] = tested on: corneal collagen; assay: Papain digest fluorescence of pig corneal flaps (collagen cross-linking); settings: 0.1% in BBBS, de-oxygenated with argon, irradiated 4 min at 30 mW/cm^2 in CO2 atmosphere
# [5] = 0.4% in PBS, UVA 30 mW/cm2, 4 min CW or 8 min pulsed with O2
# Sequence of human serum albumin (P02768 25-609): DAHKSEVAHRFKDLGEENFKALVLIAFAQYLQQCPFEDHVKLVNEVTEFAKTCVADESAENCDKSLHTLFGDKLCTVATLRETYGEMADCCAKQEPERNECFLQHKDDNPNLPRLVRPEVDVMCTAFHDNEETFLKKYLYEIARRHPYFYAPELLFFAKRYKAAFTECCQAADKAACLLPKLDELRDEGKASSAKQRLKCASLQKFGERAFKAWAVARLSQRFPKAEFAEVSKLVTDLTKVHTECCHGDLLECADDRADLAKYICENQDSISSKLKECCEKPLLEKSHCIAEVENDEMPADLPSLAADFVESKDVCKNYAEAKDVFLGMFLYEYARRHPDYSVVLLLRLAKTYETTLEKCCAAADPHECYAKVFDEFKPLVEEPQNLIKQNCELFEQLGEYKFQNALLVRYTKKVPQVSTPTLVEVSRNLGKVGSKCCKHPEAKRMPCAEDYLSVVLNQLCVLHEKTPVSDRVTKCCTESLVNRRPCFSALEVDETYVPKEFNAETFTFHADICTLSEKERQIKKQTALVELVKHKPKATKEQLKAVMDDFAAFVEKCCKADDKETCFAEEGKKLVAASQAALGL
structure (smiles),measurement,setting,value
"Cc1cc2nc3c(=O)[nH]c(=O)nc-3n(C[C@H](O)[C@H](O)[C@H](O)CO)c2cc1C [0.1% riboflavin, riboflavin]","fluorescence of the corneal samples after digestion with papain (excitation 360 nm), compared to controls not exposed to UV",[1],increases
same,average force vs. displacement measured by tensiometry,"[2]; CW UVA 30 mW/cm^2, 4 min, relative to controls",higher than the control group
same,"stiffening of corneal sample (displacement vs. force curves), compared to the unexposed controls",[2],significant stiffening
"CC(=O)C(C)=O [2,3-butanedione]","fluorescence output (relative to the untreated controls, Fo) recorded at 450 nm","[1]; 1% solution in dH2O, with UV light 365 nm, 30 mW for 4 min",increase
same,"fluorescence (relative to the untreated controls, Fo) recorded at 450 nm","[1]; 1% solution in dH2O, without UV light",does not cross-link corneal flaps
same,corneal stiffness (displacement-force diagrams),"[2]; with UV light 365 nm, 30 mW for 4 min",increase
same,corneal stiffness (displacement-force diagrams),[2]; without UV light,does not cross-link corneal flaps
"Nc1nc2ncc(CNc3ccc(C(=O)N[C@@H](CCC(=O)O)C(=O)O)cc3)nc2c(=O)[nH]1 [FA, Folic acid]","fluorescence of the corneal samples after digestion with papain (excitation 360 nm), compared to controls not exposed to UV",[1],increases
same,"stiffening of corneal sample (displacement vs. force curves), compared to the unexposed controls",[2],significant stiffening
"O=S(=O)([O-])[O-].[Fe+2] [FeSO4, Iron(II) Sulfate]",fluorescence (relative to untreated controls) recorded at 450 nm,"[1]; CW UVA 30 mW/cm^2, 4 min",increase in fluorescence
same,fluorescence (relative to untreated controls) recorded at 450 nm,"[1]; PW+O2, UVA 30 mW/cm^2, 8 min (1 s on:1 s off)",increase in fluorescence
same,average force vs. displacement measured by tensiometry (biaxial tension),"[2]; PW+O2, UVA 30 mW/cm^2, 8 min (1 s on:1 s off), versus 0.1% riboflavin",increase in biaxial tension
"OO [H2O2, hydrogen peroxide]",fluorescence counts of papain digested corneal flaps (cross-linking),"[1]; 1% H2O2 soak 20 min, with or without following 0.1% Iron(II) soak 20 min, no UV",not
"Cc1c(C(=O)NCCO)[n+]([O-])c2ccccc2[n+]1[O-] [Olaquindox, N-(2-hydroxyethyl)-3-methyl-2-quinoxalinecarboxamide 1,4-dioxide]",relative fluorescence recorded at 450 nm of the cross-linked flaps,[1]; [5],acquired fluorescence at 450 nm
same,time to complete disappearance on irradiation,[3],≤ 20 s
same,stiffness by biaxial extensiometry of 200 μm thick corneal flaps,[2]; [5],became stiffer
"Cc1cc2nc(C(=O)[O-])c(=O)n(C[C@H](O)[C@H](O)[C@H](O)CO)c2cc1C.O.[Na+] [sodium salt of 1,2-Dihydro-6,7-dimethyl-2-keto-1-D-ribityl-3-quinoxalinecarboxylic acid monohydrate]","fluorescence of the digested corneal flaps (excitation 360 nm), compared with riboflavin",[4],higher than the fluorescence of the corneal flaps cross-linked with riboflavin
same,fluorescence of the digested corneas in the area 450 nm,"[1]; 0.1% in BBBS, no epithelium, 20 min soak, 30 mW/cm^2 for 4 min continuous UVA",elevated fluorescence
